Measurements: patent publication US11865128B2, “Aminoglycosides and uses thereof in treating genetic disorders” (Technion Research & Development Foundation Limited, priority 2010, dated 2024)
Values after ≈ are worked out from the molar mass of the structure shown. “Also recorded” adds a separate entry of the source. Like-named read-outs stand apart in the source and are kept apart here.

Tests used:
[1] = test system: HEK-293 cells; test: Cell toxicity LC50 in HEK-293 cells; format: cell-based
Experimental: (§1) In order to ensure suitable cell viability for each of the tested compounds at the concentrations tested, cell toxicity was evaluated for each compound by measuring the half-maximal-lethal concentration value (LC50 values) in HEK-293 and HFF (human foreskin fibroblasts) cells.
(§2) The percentages of cell viability were calculated as the ratio between the numbers of living cells in cultures grown in the presence of the tested compounds, versus cultures grown under the identical protocol but without the tested compound. The results represent averages of at least three independent experiments.
(§3) The half-maximal lethal concentration (LC50) values were obtained from fitting concentration-response curves to the data of at least three independent experiments, using GraFit 5 software.

[2] = target: Prokaryotic system (prokaryotic ribosome); test: Prokaryotic translation inhibition, coupled transcription/translation, luciferase detection; format: biochemical
Experimental: Prokaryotic and eukaryotic translation inhibition was quantified in coupled transcription/translation assays by using active luciferase detection, performed as described hereinabove. […] All the experiments were performed in duplicates and analogous results were obtained in three different experiments. In all biological tests, all tested aminoglycosides were in their sulfate salt forms. The concentrations reported refer to that of the free amine form of each aminoglycoside.
In all biological experiments conducted, all tested aminoglycosides were in their sulfate salt forms. The concentrations reported in Table 3 refer to that of the free amine form of each aminoglycoside. Prokaryotic and eukaryotic translation inhibition was quantified in coupled transcription/translation assays as previously described. The half-maximal concentration (IC50) values were obtained from fitting concentration response curves to the data of at least three independent experiments, using GraFit 5 software. All the experiments were performed in duplicates and analogous results were obtained in three different experiments.

[3] = test system: B. subtilis ATCC6633; test: Antibacterial activity MIC, double-microdilution; format: cell-based, Bacillus subtilis; details: read-out: Antibacterial activity MIC B. subtilis ATCC6633
[4] = test system: nonsense mutation constructs R3X, R245X, Q70X, W1282X, G542X in HEK-293 cells; test: Ex vivo stop codon readthrough assay, p2luc constructs transfected to HEK-293 cells; format: cell-based, human; details: ex vivo in HEK-293, all the mutations tested, FIGS. 4, 8-10
Experimental: For the ex vivo readthrough assays, the constructs harboring the R3X, R245X, Q70X and W1282X mutations were transfected to HEK-293 cells with Lipofectamine 2000 (Invitrogen) and addition of the tested compounds was performed 6 hours post transfection. The cells were harvested following 16 hours of incubation with the tested aminoglycosides. Stop codon readthrough was calculated as previously described (see, Grentzmann, G. et al., RNA, 1998, 4, p. 479).
The constructs were transfected into a human embryonic kidney cell line (HEK-293) and incubated with varying concentrations of NB122, NB123, NB54 and the control drug gentamicin, and the results are presented in FIGS. 4A-D.
As described hereinabove, the constructs of p2luc plasmid harboring the R3X, R245X, Q70X and W1282X mutations were transfected to HEK-293 cells using lipofectamine2000 and the tested compounds were added 6 hours post transfection. Cells were harvested after 16 hours incubation and luciferase activity was determined using the dual luciferase reporter assay system (Promega™). Stop codon readthrough was calculated as described previously, and the results are averages of at least three independent experiments.

[5] = test system: Eukaryotic system (eukaryotic cytoplasmic ribosome); test: Eukaryotic translation inhibition, coupled transcription/translation, luciferase detection; format: biochemical; details: for Prokaryotic versus Eukaryotic selectivity IC50^Euk/IC50^Pro: ratio of eukaryotic to prokaryotic translation inhibition IC50
Text: Prokaryotic and eukaryotic translation inhibition was quantified in coupled transcription/translation assays by using active luciferase detection, performed as described hereinabove. […] In all biological tests, all tested aminoglycosides were in their sulfate salt forms. The concentrations reported refer to that of the free amine form of each aminoglycoside.
In all biological experiments conducted, all tested aminoglycosides were in their sulfate salt forms. The concentrations reported in Table 3 refer to that of the free amine form of each aminoglycoside. Prokaryotic and eukaryotic translation inhibition was quantified in coupled transcription/translation assays as previously described. The half-maximal concentration (IC50) values were obtained from fitting concentration response curves to the data of at least three independent experiments, using GraFit 5 software.

[6] = test system: E. coli R477/100; test: Antibacterial activity MIC, double-microdilution; format: cell-based, Escherichia coli; details: read-out: Antibacterial activity MIC E. coli R477/100
[7] = test system: HFF (human foreskin fibroblasts) cells; test: Cell toxicity LC50 in HFF cells; format: cell-based
Experimental: as §1, §2, §3

[8] = test system: nonsense mutation constructs R3X, R245X, G542X, W1282X, Q70X, R3381X (PCDH15, CFTR, IDUA, Dystrophin); test: In vitro stop codon readthrough assay, p2Luc dual luciferase, TNT reticulocyte lysate; format: biochemical; details: cell-free, mutations tested; comparison in words from FIGS. 2, 3, 5-7
Text: DNA fragments derived from PCDH15, CFTR, Dystrophin and IDUA cDNAs, including the tested nonsense mutation or the corresponding wild type (wt) codon, and four to six upstream and downstream flanking codons were created by annealing following pairs of complementary oligonucleotides:
The fragments were inserted in frame into the polylinker of the p2Luc plasmid between either BamHI and SacI (p.R3X and p.R245X), or SalI and SacI (all the rest) restriction sites.
For the in vitro readthrough assays, the obtained plasm ids, with addition of the tested aminoglycosides were transcribed and translated using the TNT Reticulocyte Lysate Quick Coupled Transcription/Translation System. Luciferase activity was determined after 90 minutes of incubation at 30° C., using the Dual Luciferase Reporter Assay System (Promega™).
Initially, the influence of the chiral C5″-methyl group on readthrough potential was evaluated on the pseudo-trisaccharides NB118 and NB119 by using a dual luciferase reporter assay system as described hereinabove. Briefly, DNA fragments were cloned between BamHI and SacI restriction sites of the p2luc vector and the obtained constructs were transcribed and translated using TNT quick coupled transcription/translation system. The amount of the translated products was evaluated using the dual luciferase reporter assay system and used to calculate the suppression level.

[9] = test system: Prokaryotic system (prokaryotic ribosome); details: shown previously; cited from earlier work
[10] = Cell toxicity LC50 in HEK-293 cells; format: cell-based; details: human, HEK-293 cells, read-out: Cell toxicity LC50 HEK-293
Experimental: as §1, §2, §3

[11] = Cell toxicity LC50 in HFF cells; format: cell-based; details: human, HFF (human foreskin fibroblast) cells, read-out: Cell toxicity LC50 HFF
Experimental: as §1, §2, §3

[12] = Table 1, read-out: Translation inhibition Prokaryotic system IC50
[13] = Table 2, read-out: Translation Inhibition Prokaryotic system IC50
[14] = Table 3, read-out: Translation Inhibition IC50^Pro
[15] = Table 1, read-out: Translation inhibition Eukaryotic System IC50
[16] = Table 2, read-out: Translation Inhibition Eukaryotic System IC50
[17] = Table 3, read-out: Translation Inhibition IC50^Euk

Row | Compound | CC50 ([1]; Table 2) | IC50 [2, 12] | IC50 [2, 13] | IC50 [2, 14] | MIC ([3]; Table 2) | observed efficacy of aminoglycoside-induced readthrough, order [4] | IC50 [5, 15] | IC50 [5, 16] | IC50 [5, 17] | Prokaryotic versus Eukaryotic selectivity IC50^Euk/IC50^Pro [5] | MIC ([6]; Table 2) | CC50 ([7]; Table 2) | in vitro readthrough activity (stop codon suppression level) [8] | weaker inhibitors of prokaryotic translation than gentamicin and paromomycin [9] | further results
1 | Gentamicin [reference compound] | 2.65 ± 0.54 mM | 28 ± 4 nM | 28 ± 4 nM | 28 ± 4 nM | <0.75 µM | NB127 NB128>NB84>gentamicin | 62 ± 9 µM | 62 ± 9 µM | 62 ± 9 µM | 2,214 | 6 µM | 3.21 ± 0.31 mM |  |  | CC50 ([1]; Table 1): 2.5 ± 0.3 mM; MIC ([3]; Table 1, free amine concentration, sulfate salts tested): <0.75 µM; observed efficacy of aminoglycoside-induced readthrough, order ([4]; listed as gentamicin): NB122≥NB123>NB54>gentamicin; also recorded: NB124>NB125>NB74>gentamicin; more selective to prokaryotic versus eukaryotic ribosome [5]: 2,214 fold; MIC ([6]; Table 1): 6 µM; CC50 ([7]; Table 1): 3.2 ± 0.3 mM
2 | C[C@@H](O)C1O[C@H](O[C@@H]2C(N)C[C@@H](N)C(O)[C@H]2O[C@@H]2O[C@H]([C@@H](C)N)[C@H](O)C2O)C(N)[C@@H](O)[C@@H]1O (stereo partly drawn) [NB125, 6′-(R)-Methyl-5-O-(5-amino-5,6-dideoxy-β-D-allofuranosyl)-paromamine] | 16.5 ± 3.1 mM |  | 1860 ± 173 nM | 1860 ± 173 nM | 96 µM (≈ 46.3 µg/mL) | NB124>NB125>NB74>gentamicin |  | 7.96 ± 0.27 µM | 7.96 ± 0.27 µM | 4.3 | 1536 µM (≈ 741 µg/mL) | 7.59 ± 0.18 mM | smaller comparatively |  | 
3 | NC[C@H]1O[C@@H](O[C@@H]2C(O)[C@H](N)CC(N)[C@H]2O[C@H]2OC(CO)[C@@H](O)[C@H](O)C2N)C(O)[C@H]1O (some centres unmarked) [NB30, reference compound] |  | 460 ± 50 nM |  | 460 ± 50 nM |  |  | 31 µM |  | 31 ± 4 µM | 68 |  |  |  | about 10 fold | CC50 ([10]; Table 1): 21.4 mM; MIC ([3]; Bacillus subtilis, ATCC6633, Table 1, free amine concentration, sulfate salts tested): 100 µM; MIC ([6]; Escherichia coli, R477/100, Table 1): 790 µM (≈ 359 µg/mL); CC50 ([11]; Table 1): 21.8 ± 0.9 mM
4 | CC(N)C1OC(OC2C(O)C(NC(=O)C(O)CCN)CC(N)C2OC2OC(C(C)O)C(O)C(O)C2N)C(O)C1O [NB127, 6′-(R)-Methyl-5-O-(5-amino-5,6-dideoxy-α-L-talofuranosyl)-1-N—[(S)-4-amino-2-hydroxy-butanoyl] paromamine] | 5.09 ± 0.27 mM |  | 1750 ± 274 nM | 1750 ± 274 nM | 192 µM (≈ 112 µg/mL) | NB127 NB128>NB84>gentamicin |  | 0.73 ± 0.07 µM | 0.73 ± 0.07 µM | 0.4 | 384 µM (≈ 224 µg/mL) | 6.48 ± 0.26 mM | significantly stronger readthrough inducers than the corresponding counterparts |  | 
5 | C[C@@H](O)C1O[C@H](O[C@@H]2C(N)C[C@@H](N)[C@@H](O)C2O[C@@H]2O[C@H](CN)[C@H](O)C2O)[C@@H](N)C(O)[C@@H]1O (some centres unmarked) [NB74, reference compound] |  |  | 1130 ± 120 nM | 1130 ± 120 nM |  | NB124>NB125>NB74>gentamicin |  |  |  |  |  |  |  | about 10 fold | CC50 ([10]; Table 2): 22.2 ± 1.06 mM; MIC ([3]; Bacillus subtilis, ATCC6633, Table 2): 42 µM (≈ 19.7 µg/mL); CC50 ([11]; Table 2): 21.3 ± 1.72 mM
6 | C[C@@H](N)[C@H]1O[C@@H](O[C@@H]2[C@@H](O)[C@H](NC(=O)[C@@H](O)CCN)C[C@H](N)[C@H]2O[C@H]2O[C@H]([C@@H](C)O)[C@@H](O)[C@H](O)[C@H]2N)[C@H](O)[C@@H]1O [NB128, 6′-(R)-Methyl-5-O-(5-amino-5,6-dideoxy-β-D-allofuranosyl)-1-N—[(S)-4-amino-2-hydroxy-butanoyl] paromamine] | 5.35 ± 0.31 mM |  | 1750 ± 145 nM | 1750 ± 145 nM | 96 µM (≈ 56 µg/mL) | NB127 NB128>NB84>gentamicin |  | 0.89 ± 0.07 µM | 0.89 ± 0.07 µM | 0.5 | 384 µM (≈ 224 µg/mL) | 2.78 ± 0.11 mM | significantly stronger readthrough inducers than the corresponding counterparts |  | 
